Reference: patent US8624040B2, “Substituted hydroxamic acids and uses thereof” (Millennium Pharmaceuticals, Inc., priority 2009, dated 2014)

What follows are molecules tested against T1, purified human HDAC6 (Homo sapiens, UniProt Q9UBN7) (assay: HDAC6 Enzyme Assay). Conditions: enzyme inhibition, substrate Ac-Arg-Gly-Lys(Ac)-AMC, 1 hour at 30° C.
T1 construct: purchased BPS Bioscience 5006
T1 sequence (Q9UBN7 1-1215): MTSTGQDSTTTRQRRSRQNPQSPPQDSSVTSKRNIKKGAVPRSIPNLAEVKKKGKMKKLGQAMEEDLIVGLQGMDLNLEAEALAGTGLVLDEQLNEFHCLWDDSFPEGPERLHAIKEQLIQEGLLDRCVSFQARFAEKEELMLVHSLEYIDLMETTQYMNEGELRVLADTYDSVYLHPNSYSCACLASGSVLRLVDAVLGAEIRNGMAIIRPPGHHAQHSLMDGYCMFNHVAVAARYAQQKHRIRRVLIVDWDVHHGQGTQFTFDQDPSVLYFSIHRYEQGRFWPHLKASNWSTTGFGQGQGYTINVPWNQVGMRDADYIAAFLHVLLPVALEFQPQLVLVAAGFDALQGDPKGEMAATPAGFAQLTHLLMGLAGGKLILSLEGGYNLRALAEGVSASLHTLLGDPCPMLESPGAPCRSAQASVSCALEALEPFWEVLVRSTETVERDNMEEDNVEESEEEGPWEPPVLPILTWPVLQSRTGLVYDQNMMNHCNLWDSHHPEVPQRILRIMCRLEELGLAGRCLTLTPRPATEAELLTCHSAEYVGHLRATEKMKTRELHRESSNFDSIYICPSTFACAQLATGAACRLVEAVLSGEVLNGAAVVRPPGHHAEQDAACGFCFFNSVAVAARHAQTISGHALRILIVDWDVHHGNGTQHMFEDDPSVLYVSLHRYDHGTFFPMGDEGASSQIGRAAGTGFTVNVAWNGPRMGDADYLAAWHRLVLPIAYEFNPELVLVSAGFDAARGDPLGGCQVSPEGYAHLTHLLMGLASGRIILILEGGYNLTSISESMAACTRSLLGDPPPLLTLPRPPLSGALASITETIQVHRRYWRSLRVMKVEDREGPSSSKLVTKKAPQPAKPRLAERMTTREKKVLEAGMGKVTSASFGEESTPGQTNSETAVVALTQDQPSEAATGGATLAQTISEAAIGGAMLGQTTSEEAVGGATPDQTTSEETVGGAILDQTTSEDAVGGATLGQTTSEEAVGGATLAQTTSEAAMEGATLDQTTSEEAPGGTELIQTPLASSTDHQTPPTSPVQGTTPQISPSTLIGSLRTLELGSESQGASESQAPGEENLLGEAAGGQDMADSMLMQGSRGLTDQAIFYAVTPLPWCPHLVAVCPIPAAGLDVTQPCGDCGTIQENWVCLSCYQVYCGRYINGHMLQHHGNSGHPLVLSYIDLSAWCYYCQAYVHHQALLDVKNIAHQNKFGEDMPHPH
Format: biochemical
Experimental: To measure the inhibition of HDAC6 activity, purified human HDAC6 (BPS Bioscience; Cat. No. 5006) is incubated with substrate Ac-Arg-Gly-Lys(Ac)-AMC peptide (Bachem Biosciences; Cat. No. I-1925) for 1 hour at 30° C. in the presence of test compounds or vehicle DMSO control. The reaction is stopped with the HDAC inhibitor trichostatin A (Sigma; Cat. No. T8552) and the amount of Arg-Gly-Lys-AMC generated is quantitated by digestion with trypsin (Sigma; Cat. No. T1426) and subsequent measurement of the amount of AMC released using a fluorescent plate reader (Pherastar; BMG Technologies) set at Ex 340 nm and Em 460 nm. Concentration response curves are generated by calculating the fluorescence increase in test compound-treated samples relative to DMSO-treated controls, and enzyme inhibition (IC50) values are determined from those curves.

SMILES | IC50 [nM]
CC(C)(C)C(=O)N1CCc2cc(C(=O)NO)sc2C1 [Compound 1, 6-(2,2-dimethylpropanoyl)-N-hydroxy-4,5,6,7-tetrahydrothieno[2,3-c]pyridine-2-carboxamide] | < 50
O=C(NO)c1cc2c(s1)CN(C(=O)C1CCCCC1)CC2 [Compound 2, 6-(cyclohexylcarbonyl)-N-hydroxy-4,5,6,7-tetrahydrothieno[2,3-c]pyridine-2-carboxamide] | < 50
CC1(C(=O)N2CCc3cc(C(=O)NO)sc3C2)CCCCC1 [Compound 3, N-hydroxy-6-[(1-methylcyclohexyl)carbonyl]-4,5,6,7-tetrahydrothieno[2,3-c]pyridine-2-carboxamide] | < 50
CC(C)(C(=O)N1CCc2cc(C(=O)NO)sc2C1)c1ccc(Cl)cc1 [Compound 4, 6-[2-(4-chlorophenyl)-2-methylpropanoyl]-N-hydroxy-4,5,6,7-tetrahydrothieno[2,3-c]pyridine-2-carboxamide] | < 50
O=C(NO)c1cc2c(s1)CN(C(=O)c1ccsc1)CC2 [Compound 5, N-hydroxy-6-(3-thienylcarbonyl)-4,5,6,7-tetrahydrothieno[2,3-c]pyridine-2-carboxamide] | < 50
CCC(Oc1ccccc1)C(=O)N1CCc2cc(C(=O)NO)sc2C1 (centres unmarked) [Compound 6, N-hydroxy-6-(2-phenoxybutanoyl)-4,5,6,7-tetrahydrothieno[2,3-c]pyridine-2-carboxamide] | < 50
COc1c(C(=O)N2CCc3cc(C(=O)NO)sc3C2)csc1Cl [Compound 7, 6-[(5-chloro-4-methoxy-3-thienyl)carbonyl]-N-hydroxy-4,5,6,7-tetrahydrothieno[2,3-c]pyridine-2-carboxamide] | < 50
O=C(NO)c1cc2c(s1)CN(C(=O)c1[nH]nc3c1CCCC3)CC2 [Compound 8, N-hydroxy-6-(4,5,6,7-tetrahydro-2H-indazol-3-ylcarbonyl)-4,5,6,7-tetrahydrothieno[2,3-c]pyridine-2-carboxamide] | < 50
CCC(C(=O)N1CCc2cc(C(=O)NO)sc2C1)(c1ccccc1)c1ccccc1 [Compound 9, 6-(2,2-diphenylbutanoyl)-N-hydroxy-4,5,6,7-tetrahydrothieno[2,3-c]pyridine-2-carboxamide] | 50 to 100
O=C(NO)c1cc2c(s1)CN(C(=O)C(C1CCCCC1)C1CCCCC1)CC2 [Compound 10, 6-(dicyclohexylacetyl)-N-hydroxy-4,5,6,7-tetrahydrothieno[2,3-c]pyridine-2-carboxamide] | 50 to 100
Cc1nc(C(F)(F)F)c(C(=O)N2CCc3cc(C(=O)NO)sc3C2)s1 [Compound 11, N-hydroxy-6-{[2-methyl-4-(trifluoromethyl)-1,3-thiazol-5-yl]carbonyl}-4,5,6,7-tetrahydrothieno[2,3-c]pyridine-2-carboxamide] | < 50
Cc1ccc(OCC(=O)N2CCc3cc(C(=O)NO)sc3C2)c(C)c1 [Compound 12, 6-[(2,4-dimethylphenoxy)acetyl]-N-hydroxy-4,5,6,7-tetrahydrothieno[2,3-c]pyridine-2-carboxamide] | > 1000
O=C(NO)c1cc2c(s1)CN(C(=O)C1(c3ccc(F)cc3Cl)CCCC1)CC2 [Compound 13, 6-{[1-(2-chloro-4-fluorophenyl)cyclopentyl]carbonyl}-N-hydroxy-4,5,6,7-tetrahydrothieno[2,3-c]pyridine-2-carboxamide] | < 50

Next, values leading:

IC50 [nM] | SMILES
< 50 | O=C(NO)c1cc2c(s1)CN(C(=O)C13CC4CC(CC(C4)C1)C3)CC2 [Compound 14, 6-[1-adamantylcarbonyl]-N-hydroxy-4,5,6,7-tetrahydrothieno[2,3-c]pyridine-2-carboxamide]
50 to 100 | O=C(NO)c1cc2c(s1)CN(C(=O)C1CCCCN1S(=O)(=O)c1ccccc1)CC2 (centres unmarked) [Compound 15, N-hydroxy-6-{[1-(phenylsulfonyl)piperidin-2-yl]carbonyl}-4,5,6,7-tetrahydrothieno[2,3-c]pyridine-2-carboxamide]
< 50 | Cc1oc(S(=O)(=O)N2CCCCC2)cc1C(=O)N1CCc2cc(C(=O)NO)sc2C1 [Compound 16, N-hydroxy-6-[2-methyl-5-(piperidin-1-ylsulfonyl)-3-furoyl]-4,5,6,7-tetrahydrothieno[2,3-c]pyridine-2-carboxamide]
> 1000 | O=C(NO)c1cc2c(s1)CN(C(=O)CC1c3ccccc3-c3ccccc31)CC2 [Compound 17, 6-(9H-fluoren-9-ylacetyl)-N-hydroxy-4,5,6,7-tetrahydrothieno[2,3-c]pyridine-2-carboxamide]
< 50 | O=C(NO)c1cc2c(s1)CN(S(=O)(=O)CC(c1ccccc1)c1ccccc1)CC2 [Compound 18, 6-[(2,2-diphenylethyl)sulfonyl]-N-hydroxy-4,5,6,7-tetrahydrothieno[2,3-c]pyridine-2-carboxamide]
< 50 | CCCCS(=O)(=O)N1CCc2cc(C(=O)NO)sc2C1 [Compound 19, 6-(butylsulfonyl)-N-hydroxy-4,5,6,7-tetrahydrothieno[2,3-c]pyridine-2-carboxamide]
< 50 | Cc1noc(C)c1S(=O)(=O)N1CCc2cc(C(=O)NO)sc2C1 [Compound 20, 6-[(3,5-dimethylisoxazol-4-yl)sulfonyl]-N-hydroxy-4,5,6,7-tetrahydrothieno[2,3-c]pyridine-2-carboxamide]
< 50 | O=C(NO)c1cc2c(s1)CN(S(=O)(=O)c1ccc(C(F)(F)F)cc1)CC2 [Compound 21, N-hydroxy-6-{[4-(trifluoromethyl)phenyl]sulfonyl}-4,5,6,7-tetrahydrothieno[2,3-c]pyridine-2-carboxamide]
< 50 | O=C(NO)c1cc2c(s1)CN(Cc1ccc3c(c1)OCCCO3)CC2 [Compound 22, 6-(3,4-dihydro-2H-1,5-benzodioxepin-7-ylmethyl)-N-hydroxy-4,5,6,7-tetrahydrothieno[2,3-c]pyridine-2-carboxamide]
< 50 | O=C(NO)c1cc2c(s1)CN(Cc1ccc(-n3cccn3)cc1)CC2 [Compound 23, N-hydroxy-6-[4-(1H-pyrazol-1-yl)benzyl]-4,5,6,7-tetrahydrothieno[2,3-c]pyridine-2-carboxamide]
< 50 | Cc1nn(-c2ccccc2)nc1CN1CCc2cc(C(=O)NO)sc2C1 [Compound 24, N-hydroxy-6-[(5-methyl-2-phenyl-2H-1,2,3-triazol-4-yl)methyl]-4,5,6,7-tetrahydrothieno[2,3-c]pyridine-2-carboxamide]
< 50 | O=C(NO)c1cc2c(s1)CN(Cc1cccc3nsnc13)CC2 [Compound 25, 6-(2,1,3-benzothiadiazol-4-ylmethyl)-N-hydroxy-4,5,6,7-tetrahydrothieno[2,3-c]pyridine-2-carboxamide]
< 50 | CC(C)(C)C(=O)N1CCc2sc(C(=O)NO)cc2C1 [Compound 26, 5-(2,2-dimethylpropanoyl)-N-hydroxy-4,5,6,7-tetrahydrothieno[3,2-c]pyridine-2-carboxamide]
< 50 | Cn1cccc1C(=O)N1CCc2sc(C(=O)NO)cc2C1 [Compound 27, N-hydroxy-5-[(1-methyl-1H-pyrrol-2-yl)carbonyl]-4,5,6,7-tetrahydrothieno[3,2-c]pyridine-2-carboxamide]
< 50 | CC1(C(=O)N2CCc3sc(C(=O)NO)cc3C2)CCCCC1 [Compound 28, N-hydroxy-5-(1-methylcyclohexanecarbonyl)-4,5,6,7-tetrahydrothieno[3,2-c]pyridine-2-carboxamide]
50 to 100 | Cc1cnc(C(=O)N2CCc3sc(C(=O)NO)cc3C2)cn1 [Compound 29, N-hydroxy-5-(5-methylpyrazine-2-carbonyl)-4,5,6,7-tetrahydrothieno[3,2-c]pyridine-2-carboxamide]
